Test results from the supplement of paper PMC11061612.

What was measured:
Assay in all cases: Bliss excess, mean over the matrix (fraction); higher = more synergy
[1] = tested on: CGTH-W-1 (Thyroid Gland Carcinoma)
Outline: (§1)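 After 24 hours at 37°C and 5% CO2 in 1536-well plates, cells in DMEM/F12 or RPMI plus 10% FBS received two-drug dose matrices for 72 hours. Viability came from CellTiter-Glo 2.0 luminescence and was scaled as inhibition, anchored at 0 by vehicle wells and at 1 by blank wells. Combination Emax is taken as the second-highest inhibition in the matrix, and Bliss excess as the observed combination effect less EA + EB − EA·EB, with EA and EB the single-agent effects.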

[2] = tested on: GCT (Other Solid Carcinomas)
Outline: as §1

[3] = tested on: huH-1 (Hepatocellular Carcinoma)
Outline: as §1

[4] = tested on: MDA-MB-436 (Breast Carcinoma)
Outline: as §1

[5] = tested on: JVM-2 (B-Cell Non-Hodgkin's Lymphoma)
Outline: as §1

[6] = tested on: LU-165 (Small Cell Lung Carcinoma)
Outline: as §1

COLO-792 (Melanoma) = tested on: COLO-792 (Melanoma)
Outline: as §1

NB13 (Neuroblastoma) = tested on: NB13 (Neuroblastoma)
Outline: as §1

AU565 (Breast Carcinoma) = tested on: AU565 (Breast Carcinoma)
Outline: as §1

[7] = tested on: SK-HEP-1 (Hepatocellular Carcinoma)
Outline: as §1

5637 (Bladder Carcinoma) = tested on: 5637 (Bladder Carcinoma)
Outline: as §1

EB2 (Burkitt's Lymphoma) = tested on: EB2 (Burkitt's Lymphoma)
Outline: as §1

[8] = tested on: NCI-H716 (Colorectal Carcinoma)
Outline: as §1

[9] = tested on: HT55 (Colorectal Carcinoma)
Outline: as §1

[10] = tested on: KYSE-140 (Esophageal Squamous Cell Carcinoma)
Outline: as §1

A101D (Melanoma) = tested on: A101D (Melanoma)
Outline: as §1

IM-9 (Non-Cancerous) = tested on: IM-9 (Non-Cancerous)
Outline: as §1

[11] = tested on: NCI-H1703 (Squamous Cell Lung Carcinoma)
Outline: as §1

EW-16 (Ewing's Sarcoma) = tested on: EW-16 (Ewing's Sarcoma)
Outline: as §1

[12] = tested on: DU-4475 (Breast Carcinoma)
Outline: as §1

| SMILES | Bliss excess [1] | Bliss excess [2] | Bliss excess [3] | Bliss excess [4] | Bliss excess [5] | Bliss excess [6] | Bliss excess (COLO-792 (Melanoma)) | Bliss excess (NB13 (Neuroblastoma)) | Bliss excess (AU565 (Breast Carcinoma)) | Bliss excess [7] | Bliss excess (5637 (Bladder Carcinoma)) | Bliss excess (EB2 (Burkitt's Lymphoma)) | Bliss excess [8] | Bliss excess [9] | Bliss excess [10] | Bliss excess (A101D (Melanoma)) | Bliss excess (IM-9 (Non-Cancerous)) | Bliss excess [11] | Bliss excess (EW-16 (Ewing's Sarcoma)) | Bliss excess [12] |
| --- | --- | --- | --- | --- | --- | --- | --- | --- | --- | --- | --- | --- | --- | --- | --- | --- | --- | --- | --- | --- |
| CN(C)CCCOc1ccc(-c2ccc3ncc4c(c3c2)n(C2CCOCC2)c(=O)n4C)cn1 [AZD0156] + C=CCn1c(=O)c2cnc(Nc3ccc(N4CCN(C)CC4)cc3)nc2n1-c1cccc(C(C)(C)O)n1 [AZD1775] (first compound max 1 µM, partner max 1 µM) | -0.033 | -0.0811 | 0.0041 | -0.0623 | -0.0372 | -0.118 | -0.017 | 0.0215 | -0.016 | -0.0574 | -0.0851 | -0.0322 | 0.022 | -0.0671 | -0.0031 | -0.0616 | 0.007 | -0.051 | -0.0464 | -0.0036 |
| CN(C)CCCOc1ccc(-c2ccc3ncc4c(c3c2)n(C2CCOCC2)c(=O)n4C)cn1 [AZD0156] + CCN(CCO)CCCOc1ccc2c(Nc3cc(CC(=O)Nc4cccc(F)c4)[nH]n3)ncnc2c1 [AZD2811] (first compound max 1 µM, 7x7, partner max 1 µM) | -0.0076 | -0.0126 | 0.0049 | -0.0539 | 0.0105 | -0.04 | 0.0167 | 0.0458 | 0.0021 | -0.0194 | 0.0043 | -0.0245 | -0.0063 | 0.0091 | 0.025 | -0.0198 | -0.0416 | 0.0059 | 0.0083 | -0.0135 |
| CN(C)CCCOc1ccc(-c2ccc3ncc4c(c3c2)n(C2CCOCC2)c(=O)n4C)cn1 [AZD0156] + C[C@@H]1COCCN1C2=NC(=NC(=C2)C3(CC3)[S@](=N)(=O)C)C4=C5C=CNC5=NC=C4 [AZD6738] (first compound max 1 µM, 7x7, partner max 10 µM) | -0.0189 | 0.0062 | 0.0019 | -0.0396 | 0.0025 | -0.0515 | -0.0297 | 0.058 | 0.0094 | -0.0034 | -0.0155 | -0.0562 | 0.0459 | -0.0042 | 0.0481 | 0.0058 | 0.05 | -0.0341 | -0.0074 | -0.0587 |
| CN(C)CCCOc1ccc(-c2ccc3ncc4c(c3c2)n(C2CCOCC2)c(=O)n4C)cn1 [AZD0156] + O=C(c1cc(Cc2n[nH]c(=O)c3ccccc23)ccc1F)N1CCN(C(=O)C2CC2)CC1 [Olaparib] (first compound max 3 µM, partner max 3 µM) | 0.0361 | 0.0068 | -0.0726 | -0.0232 | 0.0457 | 0.0093 | 0.0844 | – | 0.0442 | 0.0576 | 0.138 | 0.0892 | 0.002 | 0.0254 | -0.0069 | 0.134 | 0.275 | 0.0821 | 0.0975 | 0.117 |
| C=CCn1c(=O)c2cnc(Nc3ccc(N4CCN(C)CC4)cc3)nc2n1-c1cccc(C(C)(C)O)n1 [AZD1775] + C1CN(CCC1(C(=O)N[C@@H](CCO)C2=CC=C(C=C2)Cl)N)C3=NC=NC4=C3C=CN4 [Capivasertib] (first compound max 3 µM, partner max 3 µM) | -0.0278 | 0.004 | -0.0242 | 0.0064 | -0.0591 | -0.117 | 0.0596 | – | -0.0494 | 0.0958 | 0.0064 | -0.0204 | -0.034 | -0.125 | -0.0859 | 0.0152 | -0.0157 | 0.0131 | -0.0481 | 0.0203 |
| C=CCn1c(=O)c2cnc(Nc3ccc(N4CCN(C)CC4)cc3)nc2n1-c1cccc(C(C)(C)O)n1 [AZD1775] + C[C@@H]1COCCN1C2=NC(=NC(=C2)C3(CC3)[S@](=N)(=O)C)C4=C5C=CNC5=NC=C4 [AZD6738] (first compound max 1 µM, partner max 10 µM) | 0.0368 | 0.0157 | 0.019 | 0.0143 | 0.0203 | -0.0127 | 0.0941 | 0.0101 | -0.0083 | -0.0271 | 0.007 | 0.0589 | -0.0004 | 0.0434 | 0.0259 | -0.0089 | 0.0274 | 0.0263 | 0.0132 | 0.0549 |
| C=CCn1c(=O)c2cnc(Nc3ccc(N4CCN(C)CC4)cc3)nc2n1-c1cccc(C(C)(C)O)n1 [AZD1775] + O=C(c1cc(Cc2n[nH]c(=O)c3ccccc23)ccc1F)N1CCN(C(=O)C2CC2)CC1 [Olaparib] (first compound max 1 µM, partner max 10 µM) | -0.0222 | -0.0327 | -0.0118 | -0.0077 | 0.0055 | -0.103 | -0.0241 | 0.0008 | -0.0195 | – | -0.0551 | -0.019 | -0.0695 | 0.0391 | -0.0418 | -0.0542 | -0.0305 | -0.0267 | -0.0129 | 0.0395 |
| CCN(CCO)CCCOc1ccc2c(Nc3cc(CC(=O)Nc4cccc(F)c4)[nH]n3)ncnc2c1 [AZD2811] + C=CCn1c(=O)c2cnc(Nc3ccc(N4CCN(C)CC4)cc3)nc2n1-c1cccc(C(C)(C)O)n1 [AZD1775] (first compound max 1 µM, partner max 1 µM) | -0.0014 | -0.0211 | -0.0176 | -0.0158 | 0.0686 | -0.0603 | 0.043 | 0.0265 | 0.0437 | 0.0336 | -0.0232 | -0.0165 | 0.0847 | 0.0302 | -0.0155 | -0.0166 | -0.0297 | -0.0453 | -0.0134 | 0.0523 |
| CCN(CCO)CCCOc1ccc2c(Nc3cc(CC(=O)Nc4cccc(F)c4)[nH]n3)ncnc2c1 [AZD2811] + C[C@@H]1COCCN1C2=NC(=NC(=C2)C3(CC3)[S@](=N)(=O)C)C4=C5C=CNC5=NC=C4 [AZD6738] (first compound max 1 µM, 7x7, partner max 10 µM) | -0.0461 | -0.0318 | -0.0294 | -0.0469 | -0.0809 | -0.0637 | 0.0336 | -0.0727 | -0.002 | -0.0397 | -0.0712 | 0.0038 | -0.0765 | -0.0227 | 0.0008 | -0.0414 | -0.0441 | -0.0148 | -0.018 | 0.0045 |
| CN(CCO)CC[C@H](CSc1ccccc1)Nc1ccc(S(=O)(=O)NC(=O)c2ccc(N3CCC([C@@H](O)c4ccccc4-c4ccc(Cl)cc4)CC3)cc2)cc1S(=O)(=O)C(F)(F)F [AZD4320] + CN(C)CCCOc1ccc(-c2ccc3ncc4c(c3c2)n(C2CCOCC2)c(=O)n4C)cn1 [AZD0156] (first compound max 1 µM, 7x7, partner max 1 µM) | -0.0346 | -0.0401 | -0.0419 | -0.0496 | 0.0248 | -0.025 | – | -0.0371 | 0.0203 | 0.0146 | -0.0311 | -0.0028 | -0.0214 | -0.0158 | -0.0257 | -0.0298 | -0.0621 | -0.0127 | -0.003 | -0.0498 |
| Cc1c2c(nn1C)CSCc1cc(n(C)n1)CSc1cc(c3ccccc3c1)OCCCc1c(C(=O)O)n(C)c3c-2c(Cl)ccc13 [AZD5991] + C=CCn1c(=O)c2cnc(Nc3ccc(N4CCN(C)CC4)cc3)nc2n1-c1cccc(C(C)(C)O)n1 [AZD1775] (first compound max 1 µM, partner max 1 µM) | 0.005 | 0.0301 | -0.0405 | 0.0087 | -0.0165 | 0.0112 | 0.0348 | -0.0346 | 0.0127 | -0.0366 | -0.0352 | -0.0969 | – | 0.0215 | 0.0145 | 0.0106 | -0.054 | -0.0214 | -0.0392 | -0.0582 |
| CS(=O)(=O)CCNCc1ccc(-c2ccc3ncnc(Nc4ccc(OCc5cccc(F)c5)c(Cl)c4)c3c2)o1 [Lapatinib] + NC1(c2ccc(-c3nc4ccn5c(=O)[nH]nc5c4cc3-c3ccccc3)cc2)CCC1 [MK-2206] (first compound max 10 µM, 7x7, partner max 10 µM) | 0.0174 | – | – | 0.0323 | – | -0.0522 | – | -0.0348 | – | -0.0936 | – | -0.0348 | – | – | – | -0.0638 | 0.0096 | -0.0136 | – | 0.0428 |
| CCc1c2c(nc3ccc(O)cc13)-c1cc3c(c(=O)n1C2)COC(=O)[C@]3(O)CC [SN-38] + O=C(c1cc(Cc2n[nH]c(=O)c3ccccc23)ccc1F)N1CCN(C(=O)C2CC2)CC1 [Olaparib] (first compound max 0.3 µM, 7x7, partner max 10 µM) | 0.0526 | 0.103 | 0.0467 | 0.0627 | 0.115 | 0.0203 | 0.0356 | -0.017 | 0.0698 | 0.0077 | – | 0.0348 | – | 0.0966 | – | 0.114 | 0.0871 | 0.0271 | 0.076 | -0.0271 |
| Cc1nc(-c2cn3c(n2)-c2ccc(-c4cnn(C(C)(C)C(N)=O)c4)cc2OCC3)n(C(C)C)n1 [Taselisib] + O=C(Nc1ccc2[nH]nc(-c3ccncc3)c2c1)[C@@H]1CCN(CC(=O)N2CCN(c3ccc(-c4ncccn4)cc3)CC2)C1 [SCH772984] (first compound max 10 µM, 7x7, partner max 5 µM) | 0.0884 | – | – | -0.0028 | – | -0.0073 | – | 0.0664 | – | 0.0372 | – | 0.0182 | – | – | – | – | -0.0407 | -0.0292 | – | – |
| CC1(C)CCC(CN2CCN(c3ccc(C(=O)NS(=O)(=O)c4ccc(NCC5CCOCC5)c([N+](=O)[O-])c4)c(Oc4cnc5[nH]ccc5c4)c3)CC2)=C(c2ccc(Cl)cc2)C1 [Venetoclax] + CS(=O)(=O)CCNCc1ccc(-c2ccc3ncnc(Nc4ccc(OCc5cccc(F)c5)c(Cl)c4)c3c2)o1 [Lapatinib] (first compound max 1 µM, 7x7, partner max 10 µM) | -0.0396 | – | – | -0.0222 | – | -0.0289 | – | -0.028 | – | 0.0013 | – | -0.039 | – | – | – | – | 0.0902 | 0.0019 | – | – |
